Experimental data taken from patent US9656971B2, “COMT inhibitors” (Hoffmann-La Roche Inc., priority 2012, dated 2017).

What follows are molecules tested against T1, Rec. human COMT (Homo sapiens, UniProt P21964) (assay: COMT-Fluorescence Assay). Settings: COMT-fluorescence assay, rec. human COMT 25 nM, 4-Nitrocatechol-Alexa488 200 nM, SAM 500 nM; read-out: IC50.
T1 sequence (P21964 1-271): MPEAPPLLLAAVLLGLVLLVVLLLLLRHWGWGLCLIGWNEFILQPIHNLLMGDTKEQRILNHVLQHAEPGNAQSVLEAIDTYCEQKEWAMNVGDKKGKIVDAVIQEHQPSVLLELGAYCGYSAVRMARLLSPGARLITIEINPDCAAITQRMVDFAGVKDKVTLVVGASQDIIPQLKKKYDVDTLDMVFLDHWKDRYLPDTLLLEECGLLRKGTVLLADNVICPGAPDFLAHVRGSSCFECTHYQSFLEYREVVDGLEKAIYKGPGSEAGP
Assay type: biochemical
Description: This intramolecular interaction is disturbed if the 4-Nitrocatechol is methylated. […] This increase of fluorescence intensity can be followed in a kinetic measurement. The slope in the linear range of the kinetic is calculated. An inhibitor compound decreases the slope.
Signal [rfu/min]=(rfu(end-point)−rfu(startpoint))/incubation_time_#2

| SMILES | IC50 [nM] |
| --- | --- |
| Cc1cc(-c2cc(O)c3nc[nH]c(=O)c3c2)c(C)s1 [Example 165, 6-(2,5-Dimethylthiophen-3-yl)-8-hydroxyquinazolin-4(3H)-one] | 30 |
| Cc1ccc(-c2cc(O)c3nc[nH]c(=O)c3c2)cn1 [Example 166, 8-Hydroxy-6-(6-methylpyridin-3-yl)quinazolin-4(3H)-one] | 60 |
| O=c1[nH]cnc2c(O)cc(-c3cccc4cccnc34)cc12 [Example 167, 8-Hydroxy-6-(quinolin-8-yl)quinazolin-4(3H)-one] | 260 |
| O=c1[nH]cnc2c(O)cc(-c3cncc4ccccc34)cc12 [Example 168, 8-Hydroxy-6-(isoquinolin-4-yl)quinazolin-4(3H)-one] | 30 |
| O=c1[nH]cnc2c(O)cc(-c3ccc4ccccc4c3)cc12 [Example 169, 8-Hydroxy-6-(naphthalen-2-yl)quinazolin-4(3H)-one] | 40 |
| O=c1[nH]cnc2c(O)cc(-c3cccc4ccccc34)cc12 [Example 170, 8-Hydroxy-6-(naphthalen-1-yl)quinazolin-4(3H)-one] | 20 |
| O=c1[nH]cnc2c(O)cc(-c3ccc4c(c3)CCNC4)cc12 [Example 171, 8-Hydroxy-6-(1,2,3,4-tetrahydroisoquinolin-6-yl)quinazolin-4(3H)-one] | 80 |
| O=C(NCCN1CCOCC1)c1ccc(-c2cc(O)c3nc[nH]c(=O)c3c2)cc1 [Example 172, 4-(8-Hydroxy-4-oxo-3,4-dihydroquinazolin-6-yl)-N-(2-morpholinoethyl)benzamide] | 20 |
| CN(C)CCNC(=O)c1ccc(-c2cc(O)c3nc[nH]c(=O)c3c2)cc1 [Example 173, N-(2-(Dimethylamino)ethyl)-4-(8-hydroxy-4-oxo-3,4-dihydroquinazolin-6-yl)benzamide] | 50 |
| O=C(c1cccc(-c2cc(O)c3nc[nH]c(=O)c3c2)c1)N1CCOCC1 [Example 175, 8-Hydroxy-6-(3-(morpholine-4-carbonyl)phenyl)quinazolin-4(3H)-one] | 20 |
| O=c1[nH]cnc2c(O)cc(-c3ccc4c(c3)OCCO4)cc12 [Example 176, 6-(2,3-Dihydrobenzo[b][1,4]dioxin-6-yl)-8-hydroxyquinazolin-4(3H)-one] | 20 |
| O=c1[nH]cnc2c(O)cc(-c3ccc4c(c3)OCO4)cc12 [Example 177, 6-(Benzo[d][1,3]dioxol-5-yl)-8-hydroxyquinazolin-4(3H)-one] | 40 |
| Cc1nc(C)c(-c2cc(O)c3nc[nH]c(=O)c3c2)s1 [Example 178, 6-(2,4-Dimethylthiazol-5-yl)-8-hydroxyquinazolin-4(3H)-one] | 10 |
| Cn1cc(-c2cc(O)c3nc[nH]c(=O)c3c2)cn1 [Example 179, 8-Hydroxy-6-(1-methyl-1H-pyrazol-4-yl)quinazolin-4(3H)-one] | 90 |
| O=c1[nH]cnc2c(O)cc(-c3cccnc3O)cc12 [Example 180, 8-Hydroxy-6-(2-hydroxypyridin-3-yl)quinazolin-4(3H)-one] | 270 |
| Cn1nccc1-c1cc(O)c2nc[nH]c(=O)c2c1 [Example 181, 8-Hydroxy-6-(1-methyl-1H-pyrazol-5-yl)quinazolin-4(3H)-one] | 20 |
| O=c1[nH]cnc2c(O)cc(-c3ccc(N4CCOCC4)nc3)cc12 [Example 182, 8-Hydroxy-6-(6-morpholinopyridin-3-yl)quinazolin-4(3H)-one] | 30 |
| CN(C)c1cccc(-c2cc(O)c3nc[nH]c(=O)c3c2)n1 [Example 183, 6-(6-(Dimethylamino)pyridin-2-yl)-8-hydroxyquinazolin-4(3H)-one] | 70 |
| O=c1[nH]cnc2c(O)cc(-c3ccc(N4CCNCC4)nc3)cc12 [Example 184, 8-Hydroxy-6-(6-(piperazin-1-yl)pyridin-3-yl)quinazolin-4(3H)-one] | 20 |

Same assay, conditions: IC50, COMT-fluorescence assay, rec. human COMT 25 nM, 4-Nitrocatechol-Alexa488 200 nM, SAM 500 nM

| SMILES | IC50 [nM] |
| --- | --- |
| O=c1[nH]cnc2c(O)cc(-c3ccc4c(c3)CNCC4)cc12 [Example 174, 8-Hydroxy-6-(1,2,3,4-tetrahydroisoquinolin-7-yl)quinazolin-4(3H)-one] | 70 |
